These results are taken from article PMC7170716 (Nature, 2020).

Assay [1] addresses T1, M. thermoresistibile IrtAB (full-length) (Mycolicibacterium thermoresistibile, UniProt G7CBF5+G7CBF6).
T1 sequence (G7CBF5 1-908): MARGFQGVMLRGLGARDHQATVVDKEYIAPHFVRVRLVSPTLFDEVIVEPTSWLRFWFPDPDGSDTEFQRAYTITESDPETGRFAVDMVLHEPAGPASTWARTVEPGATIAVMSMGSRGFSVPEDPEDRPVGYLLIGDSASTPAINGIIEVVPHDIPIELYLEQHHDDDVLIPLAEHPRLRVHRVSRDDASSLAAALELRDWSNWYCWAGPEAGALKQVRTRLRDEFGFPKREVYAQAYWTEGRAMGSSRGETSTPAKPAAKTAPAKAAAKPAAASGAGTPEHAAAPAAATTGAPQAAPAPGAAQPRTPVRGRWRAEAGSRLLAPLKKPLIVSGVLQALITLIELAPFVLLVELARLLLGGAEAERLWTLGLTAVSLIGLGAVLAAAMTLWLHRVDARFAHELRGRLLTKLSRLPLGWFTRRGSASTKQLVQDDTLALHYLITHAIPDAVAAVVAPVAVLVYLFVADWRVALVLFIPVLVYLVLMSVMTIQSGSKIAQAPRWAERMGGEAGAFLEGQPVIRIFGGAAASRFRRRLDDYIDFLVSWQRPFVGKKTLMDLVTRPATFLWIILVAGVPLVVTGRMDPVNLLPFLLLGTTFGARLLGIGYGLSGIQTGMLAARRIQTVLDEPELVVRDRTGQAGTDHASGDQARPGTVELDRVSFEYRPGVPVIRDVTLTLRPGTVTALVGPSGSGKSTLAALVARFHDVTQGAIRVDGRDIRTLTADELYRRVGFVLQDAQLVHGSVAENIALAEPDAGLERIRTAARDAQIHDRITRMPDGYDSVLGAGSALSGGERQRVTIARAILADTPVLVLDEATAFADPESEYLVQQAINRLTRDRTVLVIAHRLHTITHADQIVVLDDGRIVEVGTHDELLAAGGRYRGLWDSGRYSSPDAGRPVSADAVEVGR
T1 sequence (G7CBF6 1-579): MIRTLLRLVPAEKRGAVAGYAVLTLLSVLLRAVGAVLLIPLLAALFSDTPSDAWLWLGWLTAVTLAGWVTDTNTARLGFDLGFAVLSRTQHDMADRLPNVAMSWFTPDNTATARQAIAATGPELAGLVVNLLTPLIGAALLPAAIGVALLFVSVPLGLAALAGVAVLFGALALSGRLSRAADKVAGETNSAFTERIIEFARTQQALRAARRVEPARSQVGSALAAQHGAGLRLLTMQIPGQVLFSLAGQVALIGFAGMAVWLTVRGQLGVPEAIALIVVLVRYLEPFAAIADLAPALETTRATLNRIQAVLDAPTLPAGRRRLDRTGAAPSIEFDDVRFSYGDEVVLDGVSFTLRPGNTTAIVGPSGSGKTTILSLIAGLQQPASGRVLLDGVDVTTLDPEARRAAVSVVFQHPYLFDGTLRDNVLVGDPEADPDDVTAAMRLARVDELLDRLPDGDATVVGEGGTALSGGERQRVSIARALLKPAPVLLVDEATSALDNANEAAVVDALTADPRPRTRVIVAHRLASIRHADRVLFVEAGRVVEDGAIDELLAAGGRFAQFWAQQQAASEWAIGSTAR
In words: ATPase stimulation in nanodiscs, malachite green. Format: biochemical. To be noted: 2.5 mM ATP, 10 mM MgSO4, 37 °C, acyl chain length not defined.

In the next assay the target is T2, M. smegmatis SID (Mycolicibacterium smegmatis, UniProt A0R6H8).
T2 sequence (A0R6H8 1-250 limits assumed): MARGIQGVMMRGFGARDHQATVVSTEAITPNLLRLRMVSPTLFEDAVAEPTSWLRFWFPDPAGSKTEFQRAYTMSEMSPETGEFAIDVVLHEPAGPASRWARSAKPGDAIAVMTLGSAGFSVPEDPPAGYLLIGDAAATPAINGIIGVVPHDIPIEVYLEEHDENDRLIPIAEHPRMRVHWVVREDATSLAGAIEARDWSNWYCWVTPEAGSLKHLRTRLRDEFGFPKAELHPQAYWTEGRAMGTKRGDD
The assay is described as follows: SPR, biotinylated SID on chip, equilibrium fit. Type of assay: binding. To be noted: HPLC-purified Fe-cMBT (MW 799 Da), 0-100 μM; single experiment.

In the case of Fe-MBT, the “fold ATPase stimulation” value in assay [1] (Fe-MBT 0.5-40 μM) is > 38 fold.
As a reminder, the Kd is the concentration at which binding is half-saturated. A higher Kd goes with a looser complex. As for Fe-cMBT, the Kd at M. smegmatis SID was > 200 µM. In addition, the “fold ATPase stimulation” value in assay [1] (Fe-cMBT 0.5-40 μM) is reported as > 10 fold.
